In patent US20080262228A1, “Metabolites of 5-fluoro-8- quinoline and methods of preparation and uses thereof” (Wyeth, priority 2006, published 2008):
Where a name gives a salt, the structure may show the parent alone. Values belong to the compound of their own block, whether it stands above or below them.

Assays:
[1] = Metabolite profiling in liver microsomes and S9; type: in vitro ADME, rat, dog, monkey, human; conditions: liver microsomes and S9, 10 μM COMPOUND I, 30 min; species letters not defined
Experimental: Microsomal incubations for metabolite profiling were similar to those described above for intrinsic clearance determination (see Table 1). Aliquots of COMPOUND I (10 μL), dissolved in DMSO:methanol (1:9), were added to a 96-well plate containing phosphate buffer, and MgCl2 and the liver microsomes at 37° C. using the same automation apparatus as for the stability study described hereinabove. The reactions were initiated by the addition of the UDPGA and NADPH generating system. The final incubation volume for all samples was 1 mL and the length of incubation was 30 min. […] Three 250 μL aliquots were transferred to a 96-well plate containing 900 μL acetonitrile to precipitate the protein. […] The samples were then reconstituted in 150 μL of 20% methanol in water. The three aliquots for each sample were pooled and analyzed by LC/MS.
S9 incubation buffer and cofactors were chosen to allow N-acetylation and carbamoyl glucuronidation in addition to oxidative and glucuronidation pathways possible in liver microsomes. Incubations of sulfamethazine and SCA-136 with liver S9 were used as positive controls for N-acetylation and carbamoyl glucuronidation, respectively. Following a 30 min. incubation, 750 μL from each sample were added to 900 μL acetonitrile. Following centrifugation and evaporation of the supernatant, the samples were reconstituted in 450 μL of 20% methanol in water for analysis by HPLC/UV and LC/MS (see below).
The HPLC system used for mass spectrometric analysis was an Agilent 1100 HPLC (Agilent Technologies, Palo Alto, Calif.) equipped with a binary pump and a diode array UV detector. The UV detector was set to monitor 190-400 nm. Separations were accomplished on a Luna C18 column (150×2.1 mm, 5 μm) (Phenomenex Incorporated, Torrance, Calif.).
The mass spectrometer used for metabolite characterization was a Finnigan LCQ Deca ion trap mass spectrometer (Thermo Electron Corp.). […] Full scan and data dependent MS2 and MS3 mass spectra were recorded. Finnigan Xcalibur software (version 1.3) was used for control of equipment and recording of data from UV and LC/MS analyses.
Chromatographic profiles of COMPOUND I (10 μM) metabolites in incubations with liver microsomes in the presence of NADPH are presented in FIG. 1. Chromatographic profiles of COMPOUND I (10 μM) metabolites in incubations with liver microsomes in the presence of NADPH and UDPGA are presented in FIG. 2. Chromatographic profiles of COMPOUND I (10 μM) metabolites in incubations with liver S9 in the presence of NADPH, UDPGA and acetyl coenzyme A (CoA) are presented in FIG. 3. In incubations containing NADPH, UDPGA and acetyl CoA, fourteen Phase I metabolites (M1, M6, M8, M12, M13, M14, M15, M16, M17, M18, M20, M21, M22 and M23) and six Phase II metabolites (M2, M3, M5, M7, M9 and M10) were observed. In incubations without cofactors, no metabolites were observed.
LC/MS analysis was conducted on extracts of mouse, rat, monkey and human liver microsomes and S9. The mass spectral data for the characterized COMPOUND I metabolites are discussed below.

[2] = In vivo metabolism of [14C]COMPOUND I in Sprague-Dawley rats, single oral 5 mg/kg dose; design: species or system rat; conditions: for Chromatographic Distribution of Radioactivity in Pooled Plasma Samples: 5 mg/kg oral [14C]COMPOUND I
Experimental: Dose preparation, animal dosing, and specimen collection were performed at Wyeth Research, Collegeville, Pa. The vehicle contained 2% (w/v) polysorbate 80, NF and 0.5% (w/v) methylcellulose (4000 cps) in water. [^14C]COMPOUND I trisuccinate salt (36.6 mg) and non-labeled COMPOUND I trisuccinate salt (26.7 mg) were dissolved in 1 mL of ethanol and suspended in 35 mL of the vehicle with stirring. The target [^14C]COMPOUND I concentration was approximately 1 mg/mL as free base and 70 μCi/mL with a target specific activity of 70 μCi/mg. Three pre- and post-dose aliquots (100 μL) were taken for the determination of radiochemical purity, drug and radioactivity concentrations and specific activity (see below).
Male rats weighing from 323 to 354 g and female rats weighing from 270 to 317 g at the time of dosing were purchased from Charles River Laboratories (Wilmington, Mass.). Non-fasted rats were given a single 5 mg/kg (˜350 μCi/kg) dose of [^14C]COMPOUND I at a volume of 5.0 mL/kg via intragastric gavage. Three rats were dosed for each time point. Animals were provided Purina rat chow and water ad libitum, and were kept individually in metabolism cages.
Blood samples were collected at 1, 3, 6 and 24 hr from male rats and at 1 and 3 hr from female rats after dose administration by cardiac puncture into tubes containing EDTA as the anticoagulant and placing them on ice. Triplicate aliquots (50 μL) of whole blood were removed and plasma was immediately obtained from the remaining blood by centrifugation at 4° C. Whole brain samples were collected after saline perfusion at 1, 3, 6 and 24 hr post-dose from male rats and at 1 and 3 hr post-dose from female rats. Urine samples were collected on dry ice from male rats at intervals of 0-6 and 6-24 hr post-dose. Feces were collected from male rats at 0-24 hr post-dose at room temperature. The biological specimens and aliquots of the dose suspension were stored at approximately −70° C. until analysis.
Triplicate aliquots of diluted dose (20 μL), dose fractions (10 μL), and plasma (50 μL) and urine (100 μL) from individual rats were analyzed for radioactivity concentrations. Radioactivity determinations were made with a Tri-Carb Model 3100 TR liquid scintillation counter (LSC) (Perkin Elmer) using 5 mL of Ultima Gold as the scintillation fluid.
Brain and fecal samples from individual rats were weighed and homogenized in water at a volume-to-weight ratio of about 3:1 and 5:1, respectively, with a Polytron PT homogenizer at ice-cold temperature. Duplicate aliquots of blood (50 μL), brain homogenates (0.2 g) and fecal homogenates (0.2 g) were placed on Combusto-cones with Combusto-pads and allowed to dry overnight. Samples were combusted with a model 307 Tri-Carb Sample Oxidizer, equipped with an Oximate-80 Robotic Automatic Sampler (Perkin Elmer). The liberated ^14CO2 was trapped with Carbo-Sorb E carbon dioxide absorber, mixed with PermaFluor® E^+ liquid scintillation cocktail, and counted in a Tri-Carb Model 3100 TR/LL liquid scintillation counter (Perkin Elmer).
Plasma samples were pooled by equal volumes from three animals at each time point (1, 3, 6 and 24 hr for males; 1 and 3 hr for females). Aliquots of 2 mL of pooled plasma were mixed with 2 mL of acetonitrile, placed on ice for about 10 min, and then centrifuged at 4° C. The supernatant was transferred to a clean tube. The protein pellets were extracted two more times with 4 mL of acetonitrile. The supernatants from precipitation and extraction of each sample were pooled, mixed, and evaporated at 22° C. under nitrogen in a TurboVap LV evaporator (Caliper Life Sciences, Hopkinton, Mass.) to about 1.0 mL. The concentrated extract was centrifuged, the supernatant volume measured and the extraction efficiency was determined by analyzing duplicate 10 μL aliquots for radioactivity concentrations.

[3] = In vivo metabolism and excretion of [14C]COMPOUND I in male beagle dogs, single oral 3 mg/kg dose; design: species or system dog; conditions: 3 mg/kg oral
Experimental: Dose preparation, animal dosing, and specimen collection were performed at Wyeth Research, Collegeville, Pa. The vehicle contained 2% (w/v) polysorbate 80, NF and 0.5% (w/v) methylcellulose (4000 cps) in water. [^14C]COMPOUND I trisuccinate salt (50.25 mg) and non-labeled COMPOUND I trisuccinate salt (331.9 mg) were suspended in 72 mL of the vehicle by grinding with a mortar and a pestle. The target [^14C]COMPOUND I concentration was approximately 3 mg/mL as free base and 48 μCi/mL with a target specific activity of 16 μCi/mg. Three pre- and post-dose aliquots (100 μL) were taken for the determination of radiochemical purity, drug and radioactivity concentrations and specific activity (see below).
Four male beagle dogs, weighing from 9.4 to 11.5 kg at the time of dosing, were from an in-house colony. Non-fasted dogs were given a single 3 mg/kg (approximately 48 μCi/kg) dose of [^14C]COMPOUND I at a volume of 1 mL/kg via intragastric gavage. Animals were provided Purina dog chow and water ad libitum, and were housed individually in metabolic cages.
Blood samples were collected from the jugular vein at 1, 4, 8, 24, 48, 72 and 120 hr after dose administration into tubes containing potassium EDTA as the anticoagulant and then placed on ice. Aliquots of 200 μL were removed and plasma was harvested immediately from the remaining blood by centrifugation at 4° C. Urine samples were collected into tubes on dry ice from 0-24 and 24-48 hr, and then at ambient temperature at 24 hr intervals for 7 days post-dose. Fecal samples were collected at 24 hr intervals for 7 days post-dose at room temperature. Cage rinses were collected daily by rinsing each cage with approximately 500 mL of 30% ethanol in water. The dose aliquots and biological specimens were stored at approximately −70° C. until analysis.
Triplicate aliquots of diluted dose (20 μL), dose fractions (10 μL) and plasma (50 μL), urine (200 μL) and cage wash (500 μL) from individual dogs were analyzed for radioactivity content. The samples were assayed in a Tri-Carb Model 3100TR liquid scintillation counter (Perkin Elmer) using 5 mL of Ultima Gold scintillation cocktail.
Fecal samples from individual dogs were weighed and homogenized in water at a volume-to-weight ratio of about 4:1 with a Silverson sealed-unit homogenizer at ambient temperature. Triplicate aliquots of whole blood (50 μL) and fecal homogenates (approximately 0.2 g) were placed into Combusto-cones with Combusto-pads and allowed to dry overnight. Samples were combusted with a model 307 Tri-Carb Sample Oxidizer, equipped with an Oximate-80 Robotic Automatic Sampler (Perkin Elmer). The liberated ^14CO2 was trapped with Carbo-Sorb® E carbon dioxide absorber, mixed with PermaFluor® E+liquid scintillation cocktail, and counted in a Tri-Carb Model 3100 TR/LL liquid scintillation counter.
Plasma samples were pooled by mixing equal volumes from four animals at each time point (1, 4, 8 and 24 hr). Aliquots of 2.0 mL of pooled plasma were mixed with 2.0 mL of acetonitrile, placed on ice for about 10 min, and then centrifuged at 4° C. The supernatant was transferred to a clean tube. The protein pellets were extracted two more times with 2.0 mL of acetonitrile. The supernatants from precipitation and extraction of each sample were pooled, mixed, and evaporated at 22° C. under nitrogen in a TurboVap LV evaporator (Caliper Life Sciences, Hopkinton, Mass.) to about 0.8 mL. The concentrated extract was centrifuged, the supernatant volume measured and the extraction efficiency was determined by analyzing duplicate 10 μL aliquots for radioactivity concentrations. For metabolite profiling, an aliquot of the supernatant (200 μL) was injected onto the HPLC column as described hereinbelow, and fractions were collected at 20 second intervals into 96-well Lumaplates (Perkin Elmer).

[4] = Turnover to metabolites in cryopreserved hepatocytes; conditions: 100 μM, 1 hr
Experimental: Chromatographic analyses were performed with a Waters Alliance model 2695 HPLC system (Waters Corp., Milford, Mass.) that was equipped with a built-in autosampler. The column eluent was monitored with a model 996 diode array UV detector, set to monitor 250 nm, and a FloOne β Model A525 radioactivity flow detector (Perkin Elmer) with a 250 μL flow cell. Separation of the parent compound from metabolites was accomplished using a Discovery C18 column, 250×4.6 mm, 5 μm (Supelco, Bellefonte, Pa.) at an ambient temperature of approximately 20° C. Mobile phase A was 10 mM ammonium acetate (pH 4.5) and mobile phase B was acetonitrile and they were delivered at 1 mL/min using the gradient described in Table 10. The Ultima Flo M scintillant flow rate was 3 mL/min.
Flo-One analytical software (version 3.65) was utilized to integrate the radioactive peaks. Means and standard deviations were calculated using Microsoft Excel® 2000. Micromass MassLynx software (version 4.0, Waters Corp.) was used for control of LC/MS equipment and recording of data from LC/MS analyses.

Compound: COC1=CC(=O)c2ncccc2C1=O [Metabolite M1, 6-Methoxy-quinoline-5,8-dione]
Species (in which the metabolite was characterized) [1]: R, D, M, H

Compound: O=C(O)C1OC(Oc2cc(N3CCN(C4CCN(c5ccc(F)c6cccnc56)CC4)CC3)c3ncccc3c2)C(O)C(O)C1O (stereo not shown) [Metabolite M11, O-Desmethyl COMPOUND I glucuronide]
Chromatographic Distribution of Radioactivity in Pooled Plasma Samples ([2]; female rats, 1 hr): 56.8% | Chromatographic Distribution of Radioactivity in Pooled Plasma Samples ([2]; female rats, 3 hr): 48.2% | percent of total plasma radioactivity ([2]; male and female rats, range over time points, 5 mg/kg oral): 41.3-56.8% | Chromatographic Distribution of Radioactivity in Pooled Plasma Samples ([2]; male rats, 1 hr): 52.9% | Chromatographic Distribution of Radioactivity in Pooled Plasma Samples ([2]; male rats, 3 hr): 43.1% | Chromatographic Distribution of Radioactivity in Pooled Plasma Samples ([2]; male rats, 6 hr): 41.3%

Compound: COc1cc(N2CCN(C3CCN(C4=CC(=O)C(=O)c5cccnc54)CC3)CC2)c2ncccc2c1 [Metabolite M16, Desfluoro COMPOUND I quinone]
Species (in which the metabolite was characterized) [1]: R, M, H

Second part, the compound after the results:

Species (in which the metabolite was characterized) [1]: R, D, M, H
Compound: O=C1C=C(N2CCN(C3CCN(c4ccc(F)c5cccnc45)CC3)CC2)c2ncccc2C1=O [Metabolite M23, Desmethyl COMPOUND I quinone]

Source ([3]; P, plasma, F, feces): P, F | percent of total fecal radioactivity ([3]; pooled 0-24 hr fecal sample): 4.6% | percent of total fecal radioactivity ([3]; pooled 24-48 hr fecal sample): 19.3%
Compound: O=S(=O)(O)Oc1cc(N2CCN(C3CCN(c4ccc(F)c5cccnc45)CC3)CC2)c2ncccc2c1 [Metabolite M24, O-Desmethyl COMPOUND I sulfate]

Species (in which the metabolite was characterized) [1]: R, D, M, H
Compound: Methoxyquinolinyl-piperazine [Metabolite P1]

turnover (positive control) ([4]; dog hepatocytes): 9% | turnover (positive control) ([4]; human hepatocytes): 6% | turnover (positive control) ([4]; rat hepatocytes): 10%
Compound: [^14C]7-Ethoxycoumarin [reference compound]
